Consider one compound from US20100310665A1, “BACTERIOSTATIC OR BACTERIOCIDAL COMPOSITIONS AND METHODS” (Revalesio Corporation, priority 2007, published 2010).

Structures are written as SMILES.

For the experiment, the system named is Methicillin-Resistant Staphylococcus Aureus (MRSA). As to the kind of experiment: MRSA bacteriocidal effects, plates with no growth. The class given is cell-based. Also on record: concentration or dose not given beside the values. To be noted: fluids in combination with oxacillin.

For `Cc1onc(-c2ccccc2)c1C(=O)N[C@@H]1C(=O)N2[C@@H]1SC(C)(C)[C@@H]2C(=O)O` [Drug, oxacillin], the “Percentage of plates with no growth at indicated time” value (“Percentage of plates with no growth” below) (0 min) is 16.67%; the “Percentage of plates with no growth” value (30 min) turned out to be 0.00%; the “Percentage of plates with no growth” value (120 min) is reported as 0.00%; the “Percentage of plates with no growth” value (240 min) turned out to be 0.00%; the “Percentage of plates with no growth” value (480 min) was 0.00%; the “Percentage of plates with no growth” value (1080 min) came out at 0.00%. Further, the “Percentage of plates with no growth” value (1440 min) was determined as 0.00%.
